According to ChEMBL document CHEMBL1201862, “PubChem BioAssay data set” (2004):
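How tested: cells in 96-well plates exposed to compound for 48 hours at five concentrations. GI50 is the concentration that inhibits growth by half.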 Calls of active or inactive are those of the source. No stated cut-off is given here; in the data, active = GI50 up to about 1.1 µM and inactive = higher.

Tests used:
Test in all cases: NCI-60 cell line screen, 48 h
ACHN = tested on: ACHN
HCC 2998 = tested on: HCC 2998
HCT-116 = tested on: HCT-116
HOP-92 = tested on: HOP-92
HT-29 = tested on: HT-29
IGROV-1 = tested on: IGROV-1
Malme-3M = tested on: Malme-3M
NCI-H460 = tested on: NCI-H460
OVCAR-3 = tested on: OVCAR-3
OVCAR-5 = tested on: OVCAR-5
SK-MEL-28 = tested on: SK-MEL-28
SNB-19 = tested on: SNB-19
SR = tested on: SR
U-251 = tested on: U-251
UACC-62 = tested on: UACC-62
MCF7 = tested on: MCF7
MDA-MB-435 = tested on: MDA-MB-435
NCI/ADR-RES = tested on: NCI/ADR-RES
PC-3 = tested on: PC-3

| Compound | GI50 (ACHN) | GI50 (HCC 2998) | GI50 (HCT-116) | GI50 (HOP-92) | GI50 (HT-29) | GI50 (IGROV-1) | GI50 (Malme-3M) | GI50 (NCI-H460) | GI50 (OVCAR-3) | GI50 (OVCAR-5) | GI50 (SK-MEL-28) | GI50 (SNB-19) | GI50 (SR) | GI50 (U-251) | GI50 (UACC-62) | GI50 (MCF7) | GI50 (MDA-MB-435) | GI50 (NCI/ADR-RES) | GI50 (PC-3) |
| --- | --- | --- | --- | --- | --- | --- | --- | --- | --- | --- | --- | --- | --- | --- | --- | --- | --- | --- | --- |
| C/C(CC(=O)Nc1cccc(C)c1C)=N\NC(N)=S | > 100 µM (inactive) | > 100 µM (inactive) | 88.7 µM (inactive) | > 100 µM (inactive) | > 100 µM (inactive) | > 100 µM (inactive) | > 100 µM (inactive) | > 100 µM (inactive) | > 100 µM (inactive) | > 100 µM (inactive) | > 100 µM (inactive) | > 100 µM (inactive) | 26.2 µM (inactive) | > 100 µM (inactive) | > 100 µM (inactive) |  |  |  |  |
| C#CCN(N=O)C(=O)NCCCCC(NC(=O)OCc1ccccc1)C(=O)OCc1ccccc1 (stereo unspecified) | 61.5 µM (inactive) | > 100 µM (inactive) | 32.7 µM (inactive) | 20.3 µM (inactive) | 62.4 µM (inactive) | 76 µM (inactive) | 29.9 µM (inactive) | 98.2 µM (inactive) | 25.5 µM (inactive) | > 100 µM (inactive) | 49.5 µM (inactive) | > 100 µM (inactive) |  | 48.9 µM (inactive) | 30.6 µM (inactive) |  |  |  |  |
| CC(/C=C1\CCC(CN(C)C)C1=O)c1cccc(Br)c1 (stereo unspecified) | 13.4 µM (inactive) | 20.4 µM (inactive) | 8.59 µM (inactive) | 18.2 µM (inactive) | 15.1 µM (inactive) | 13.8 µM (inactive) | 17.8 µM (inactive) | 29.6 µM (inactive) | 17 µM (inactive) | 22.8 µM (inactive) | 17 µM (inactive) | 26 µM (inactive) |  | 18.2 µM (inactive) | 17.3 µM (inactive) |  |  |  |  |
| CC(C)c1ccc(C2C3=C(N=C4SCC(=O)N42)C(=O)c2ccccc23)cc1 (stereo unspecified) | 73.1 µM (inactive) | > 100 µM (inactive) | 70.6 µM (inactive) | 15.7 µM (inactive) | > 100 µM (inactive) | > 100 µM (inactive) | > 100 µM (inactive) | > 100 µM (inactive) | 60 µM (inactive) | > 100 µM (inactive) | 35.1 µM (inactive) | 64.9 µM (inactive) |  | 74 µM (inactive) | 33.7 µM (inactive) |  |  |  |  |
| CC(C)=CC(=O)Oc1ccc([N+](=O)[O-])cc1 | > 100 µM (inactive) | > 100 µM (inactive) | > 100 µM (inactive) | > 100 µM (inactive) | > 100 µM (inactive) | > 100 µM (inactive) | > 100 µM (inactive) | > 100 µM (inactive) | > 100 µM (inactive) | > 100 µM (inactive) |  | > 100 µM (inactive) | > 100 µM (inactive) | > 100 µM (inactive) | > 100 µM (inactive) |  |  |  |  |
| O=C1CCCc2ccc([N+](=O)[O-])c(O)c21 | 48.9 µM (inactive) | > 100 µM (inactive) | > 100 µM (inactive) | 68.1 µM (inactive) | > 100 µM (inactive) | 82.6 µM (inactive) | 34.4 µM (inactive) | > 100 µM (inactive) | > 100 µM (inactive) | 59.8 µM (inactive) | > 100 µM (inactive) | 82.6 µM (inactive) | 85.7 µM (inactive) | 59.3 µM (inactive) | 54.6 µM (inactive) |  |  |  |  |
| C[N+](C)(C)CC1CCCC/C1=N\OC(=O)c1ccccc1 (stereo unspecified) | > 100 µM (inactive) | > 100 µM (inactive) | > 100 µM (inactive) | > 100 µM (inactive) | > 100 µM (inactive) | > 100 µM (inactive) | > 100 µM (inactive) | > 100 µM (inactive) | > 100 µM (inactive) | > 100 µM (inactive) | > 100 µM (inactive) | > 100 µM (inactive) | > 100 µM (inactive) | > 100 µM (inactive) | > 100 µM (inactive) |  |  |  |  |
| S=P(c1ccccc1)(c1ccccc1)C1(C2(P(=S)(c3ccccc3)c3ccccc3)CC2)CC1 | > 100 µM (inactive) | > 100 µM (inactive) | > 100 µM (inactive) |  | > 100 µM (inactive) | > 100 µM (inactive) |  | > 100 µM (inactive) |  | > 100 µM (inactive) | > 100 µM (inactive) | > 100 µM (inactive) | > 100 µM (inactive) | > 100 µM (inactive) | > 100 µM (inactive) |  |  |  |  |
| O=c1[nH]c(=O)n(COCc2ccccc2)c2ccc(Br)cc12 | 27.5 µM (inactive) |  | > 100 µM (inactive) | > 100 µM (inactive) | > 100 µM (inactive) | > 100 µM (inactive) |  | 89.5 µM (inactive) | 85.3 µM (inactive) | > 100 µM (inactive) | > 100 µM (inactive) | 64.3 µM (inactive) | > 100 µM (inactive) | > 100 µM (inactive) | > 100 µM (inactive) | > 100 µM (inactive) | > 100 µM (inactive) | 37 µM (inactive) |  |
| C/C=C1/CC(C(=O)OC)N(C(=O)OCc2ccccc2)C1=S (stereo unspecified) | > 100 µM (inactive) | 7.73 µM (inactive) | > 100 µM (inactive) | > 100 µM (inactive) | > 100 µM (inactive) | > 100 µM (inactive) | > 100 µM (inactive) | 12.3 µM (inactive) | > 100 µM (inactive) | > 100 µM (inactive) | > 100 µM (inactive) | > 100 µM (inactive) |  | > 100 µM (inactive) | > 100 µM (inactive) | > 100 µM (inactive) | > 100 µM (inactive) | > 100 µM (inactive) | > 100 µM (inactive) |
| O=S(=O)(/C=C/C(=C/c1ccccc1)S(=O)(=O)c1ccccc1)c1ccccc1 | 1.76 µM (inactive) | 1.95 µM (inactive) | 1.72 µM (inactive) |  | 1.73 µM (inactive) | 4.06 µM (inactive) | 1.81 µM (inactive) | 1.78 µM (inactive) | 1.73 µM (inactive) |  | 1.49 µM (inactive) | 1.78 µM (inactive) | 1.51 µM (inactive) | 1.83 µM (inactive) | 2.16 µM (inactive) |  |  |  |  |
| Cc1noc2cccc(O)c12 | > 100 µM (inactive) | > 100 µM (inactive) | > 100 µM (inactive) | > 100 µM (inactive) | > 100 µM (inactive) | > 100 µM (inactive) | > 100 µM (inactive) | > 100 µM (inactive) | > 100 µM (inactive) | > 100 µM (inactive) | > 100 µM (inactive) | > 100 µM (inactive) |  | > 100 µM (inactive) | > 100 µM (inactive) |  |  |  |  |
| N#C/C(=C/c1ccc([N+](=O)[O-])o1)c1ccccc1 | > 100 µM (inactive) | > 100 µM (inactive) | > 100 µM (inactive) | > 100 µM (inactive) | > 100 µM (inactive) |  | > 100 µM (inactive) | > 100 µM (inactive) | > 100 µM (inactive) | > 100 µM (inactive) | > 100 µM (inactive) | > 100 µM (inactive) | > 100 µM (inactive) | > 100 µM (inactive) | > 100 µM (inactive) |  |  |  |  |
| O=C(CSc1nc(-c2ccccc2)c(-c2ccccc2)[nH]1)N/N=C/c1ccc(O)cc1 | 22.1 µM (inactive) | 19.6 µM (inactive) | 22.5 µM (inactive) | 22.8 µM (inactive) | 18.9 µM (inactive) | 26.4 µM (inactive) | 21.4 µM (inactive) | 20 µM (inactive) | 18.2 µM (inactive) |  | 32.1 µM (inactive) | 32.5 µM (inactive) | 16.4 µM (inactive) | 20.3 µM (inactive) | 22.1 µM (inactive) |  |  |  |  |
| N#CC(c1ccc(Cl)cc1)c1cccc(C(C#N)c2ccc(Cl)cc2)n1 (stereo unspecified) | 10.8 µM (inactive) | 37.4 µM (inactive) |  | 15.2 µM (inactive) | 19.1 µM (inactive) |  | 30.6 µM (inactive) | 23.1 µM (inactive) | 15.9 µM (inactive) | > 100 µM (inactive) | 17 µM (inactive) | 26.5 µM (inactive) | 9.31 µM (inactive) | 18.1 µM (inactive) | 14 µM (inactive) |  |  |  |  |
| COc1cc2c(oc(=O)c3c4occc4cc(OC)c23)c2cccc(O)c12 | > 100 µM (inactive) | > 100 µM (inactive) | > 100 µM (inactive) | > 100 µM (inactive) | > 100 µM (inactive) | > 100 µM (inactive) | > 100 µM (inactive) | > 100 µM (inactive) | > 100 µM (inactive) | > 100 µM (inactive) | > 100 µM (inactive) | > 100 µM (inactive) |  | > 100 µM (inactive) | > 100 µM (inactive) |  |  |  |  |
| Cc1ccccc1NC(=O)C(=O)C(C#N)c1ccc(Cl)cc1 (stereo unspecified) | 74.1 µM (inactive) | 19.6 µM (inactive) | 34 µM (inactive) | 45.8 µM (inactive) | 28.8 µM (inactive) | 63.7 µM (inactive) | > 100 µM (inactive) | 21.3 µM (inactive) | > 100 µM (inactive) | 54 µM (inactive) | 67.5 µM (inactive) | 63.2 µM (inactive) |  | 51.1 µM (inactive) | 37.4 µM (inactive) |  |  |  |  |
| Cc1cccc(C(C)C)c1NC(=O)C(=O)CC(=O)c1c(C)[n+]([O-])c2ccccc2[n+]1[O-] | > 100 µM (inactive) | 34.3 µM (inactive) | 32.1 µM (inactive) | 67 µM (inactive) | 34.4 µM (inactive) | 30.2 µM (inactive) | 18.7 µM (inactive) | 21.5 µM (inactive) | 3.44 µM (inactive) | 45.9 µM (inactive) | 36.1 µM (inactive) | 31.8 µM (inactive) | 28.2 µM (inactive) | 34.1 µM (inactive) | 21.5 µM (inactive) |  |  |  |  |
| COC(=O)c1cccc2cccc(C(=O)Nc3ccc(Cl)cc3)c12 | 2.92 µM (inactive) | 6.17 µM (inactive) | > 35.1 µM (inactive) | > 69.7 µM (inactive) |  |  | > 100 µM (inactive) | 10.3 µM (inactive) | 29.2 µM (inactive) | > 86.9 µM (inactive) | > 100 µM (inactive) | > 100 µM (inactive) | 17.1 µM (inactive) | 39.7 µM (inactive) | 0.153 µM (active) |  |  |  |  |
